ChEMBL document CHEMBL3244163, “Antifungal agents. 5. Chemical modification of antibiotics from Polyangium cellulosum var. fulvum. Alcohol, ketone, aldehyde, and oxime analogues of ambruticin” (1979)
Converted amounts (≈) assume the structure as drawn. The source made the active and inactive calls. The calls are words filed in the database; no cut-off is given here.

Tests used:
[1] = test system: Streptococcus pyogenes; assay: Antibacterial activity against Streptococcus pyogenes by standard broth dilution technique; type: functional, organism-based
[2] = test system: Candida albicans; assay: Antifungal activity against Candida albicans by standard broth dilution technique; type: functional, organism-based
[3] = test system: Histoplasma capsulatum; assay: Antifungal activity against Histoplasma capsulatum assessed as growth inhibition after 3 days by standard broth dilution technique; type: functional; details: 72 h
[4] = Antifungal activity against Microsporum fulvum assessed as growth inhibition after 3 days by standard broth dilution technique; type: functional; details: Arthroderma fulvum

| SMILES | Activity [1] | Activity [2] | MIC [3] | MIC [4] |
| --- | --- | --- | --- | --- |
| CC[C@H]1O[C@@H](/C(C)=C/[C@H](C)/C=C/[C@H]2[C@@H](C)[C@@H]2/C=C/[C@@H]2O[C@H](CC(=O)OC)C/C(=N/O)[C@H]2O)CC=C1C | inactive | inactive | 0.78 µg/mL (≈ 1.55 µM) |  |
| CCC(O)C[C@@H]1C[C@H](O)[C@@H](O)[C@H](/C=C/[C@H]2[C@H](C)[C@@H]2/C=C/[C@@H](C)/C=C(\C)[C@H]2CC=C(C)[C@@H](CC)O2)O1 (stereo not given in full) | inactive | inactive | 0.78 µg/mL (≈ 1.6 µM) |  |
| CC[C@H]1O[C@@H](/C(C)=C/[C@H](C)/C=C/[C@H]2[C@@H](C)[C@@H]2/C=C/[C@@H]2O[C@H](CCO)CC(=O)[C@H]2O)CC=C1C | inactive | inactive | 6.25 µg/mL (≈ 13.6 µM) | 0.78 µg/mL (≈ 1.7 µM) |
| CC[C@H]1O[C@@H](/C(C)=C/[C@H](C)/C=C/[C@H]2[C@@H](C)[C@@H]2/C=C/[C@@H]2O[C@H](CCO)C[C@@H](O)[C@H]2O)CC=C1C | inactive | inactive | 0.39 µg/mL (≈ 0.847 µM) | 0.39 µg/mL (≈ 0.847 µM) |
| CC[C@H]1O[C@@H](/C(C)=C/[C@H](C)/C=C/[C@H]2[C@@H](C)[C@@H]2/C=C/[C@@H]2O[C@H](CCOC(=O)Nc3ccccc3)C[C@H](OC(=O)Nc3ccccc3)[C@H]2OC(=O)Nc2ccccc2)CC=C1C | inactive | inactive |  | > 50 µg/mL |
| CC[C@H]1O[C@@H](/C(C)=C/[C@H](C)/C=C/[C@H]2[C@@H](C)[C@@H]2/C=C/[C@@H]2O[C@H](CCO)C[C@@](O)(c3ccccc3)[C@H]2O)CC=C1C | inactive | inactive | 3.12 µg/mL (≈ 5.81 µM) | 6.25 µg/mL (≈ 11.6 µM) |
| CC[C@H]1O[C@@H](/C(C)=C/[C@H](C)/C=C/[C@H]2[C@@H](C)[C@@H]2/C=C/[C@@H]2O[C@H](CC(=O)OC)C[C@H](O)[C@H]2O)CC=C1C | inactive | inactive | 0.39 µg/mL (≈ 0.798 µM) | 0.39 µg/mL (≈ 0.798 µM) |
| CCC(=O)C[C@@H]1C[C@H](O)[C@@H](O)[C@H](/C=C/[C@H]2[C@H](C)[C@@H]2/C=C/[C@@H](C)/C=C(\C)[C@H]2CC=C(C)[C@@H](CC)O2)O1 | inactive | inactive | 0.78 µg/mL (≈ 1.6 µM) | 0.78 µg/mL (≈ 1.6 µM) |
| CC[C@H]1O[C@@H](/C(C)=C/[C@H](C)/C=C/[C@H]2[C@@H](C)[C@@H]2/C=C/[C@@H]2O[C@H](CCOC(C)=O)C[C@H](OC(C)=O)[C@H]2OC(C)=O)CC=C1C | inactive | inactive | 50 µg/mL (≈ 85.2 µM) | > 50 µg/mL |
| CC[C@H]1O[C@@H](/C(C)=C/[C@H](C)/C=C/[C@H]2[C@@H](C)[C@@H]2/C=C/[C@@H]2O[C@H](CC(=O)O)C[C@H](O)[C@H]2O)CC=C1C [AMBRUTICIN] | inactive | inactive | 0.39 µg/mL (≈ 0.822 µM) | 0.098 µg/mL (≈ 0.206 µM) |
| CC[C@H]1O[C@@H](/C(C)=C/[C@H](C)/C=C/[C@H]2[C@@H](C)[C@@H]2/C=C/[C@@H]2O[C@H](CC(O)C(C)(C)C)C[C@H](O)[C@H]2O)CC=C1C (stereo not given in full) | inactive | inactive | 6.25 µg/mL (≈ 12.1 µM) | > 50 µg/mL |
| CC[C@H]1O[C@@H](/C(C)=C/[C@H](C)/C=C/[C@H]2[C@@H](C)[C@@H]2/C=C/[C@@H]2O[C@H](CCO)C/C(=N\O)[C@H]2O)CC=C1C | inactive | inactive | 0.098 µg/mL (≈ 0.207 µM) | 0.195 µg/mL (≈ 0.412 µM) |
| CC[C@H]1O[C@@H](/C(C)=C/[C@H](C)/C=C/[C@H]2[C@@H](C)[C@@H]2/C=C/[C@@H]2O[C@H](CC(O)(CC)CC)C[C@H](O)[C@H]2O)CC=C1C | inactive | inactive | 1.56 µg/mL (≈ 3.02 µM) | 3.12 µg/mL (≈ 6.04 µM) |
| CC[C@H]1O[C@@H](/C(C)=C/[C@H](C)/C=C/[C@H]2[C@@H](C)[C@@H]2/C=C/[C@@H]2O[C@H](CCO)C[C@H](O)[C@H]2O)CC=C1C | inactive | inactive | 0.098 µg/mL (≈ 0.213 µM) | 0.098 µg/mL (≈ 0.213 µM) |
| CC[C@H]1O[C@@H](/C(C)=C/[C@H](C)/C=C/[C@H]2[C@@H](C)[C@@H]2/C=C/[C@@H]2O[C@H](CC(O)(c3ccccc3)c3ccccc3)C[C@H](O)[C@H]2O)CC=C1C | inactive | inactive | 50 µg/mL (≈ 81.6 µM) | > 50 µg/mL |
| CC[C@H]1O[C@@H](/C(C)=C/[C@H](C)/C=C/[C@H]2[C@@H](C)[C@@H]2/C=C/[C@@H]2O[C@H](CC(O)(C(C)C)C(C)C)C[C@H](O)[C@H]2O)CC=C1C | inactive | inactive | 50 µg/mL (≈ 91.8 µM) | > 50 µg/mL |
| CC[C@H]1O[C@@H](/C(C)=C/[C@H](C)/C=C/[C@H]2[C@@H](C)[C@@H]2/C=C/[C@@H]2O[C@H](CC(=O)C(C)(C)C)C[C@H](O)[C@H]2O)CC=C1C | inactive | inactive | 12.5 µg/mL (≈ 24.3 µM) | > 50 µg/mL |
| CC[C@H]1O[C@@H](/C(C)=C/[C@H](C)/C=C/[C@H]2[C@@H](C)[C@@H]2/C=C/[C@@H]2O[C@H](CC(C)O)C[C@H](O)[C@H]2O)CC=C1C (stereo not given in full) | inactive | inactive | 0.098 µg/mL (≈ 0.206 µM) | 0.195 µg/mL (≈ 0.411 µM) |
| CC[C@H]1O[C@@H](/C(C)=C/[C@H](C)/C=C/[C@H]2[C@@H](C)[C@@H]2/C=C/[C@@H]2O[C@H](CC(=O)OC)C[C@@H](O)[C@H]2O)CC=C1C | inactive | inactive | 0.39 µg/mL (≈ 0.798 µM) | 0.39 µg/mL (≈ 0.798 µM) |
| CC[C@H]1O[C@@H](/C(C)=C/[C@H](C)/C=C/[C@H]2[C@@H](C)[C@@H]2/C=C/[C@@H]2O[C@H](CC(C)(C)O)C[C@H](O)[C@H]2O)CC=C1C | inactive | inactive | 0.78 µg/mL (≈ 1.6 µM) | 0.195 µg/mL (≈ 0.399 µM) |
| CC[C@H]1O[C@@H](/C(C)=C/[C@H](C)/C=C/[C@H]2[C@@H](C)[C@@H]2/C=C/[C@@H]2O[C@H](CCO)C[C@@](O)(CC)[C@H]2O)CC=C1C | inactive | inactive | 1.56 µg/mL (≈ 3.19 µM) | 1.56 µg/mL (≈ 3.19 µM) |
| CC[C@H]1O[C@@H](/C(C)=C/[C@H](C)/C=C/[C@H]2[C@@H](C)[C@@H]2/C=C/[C@@H]2O[C@H](CC(O)c3ccccc3)C[C@H](O)[C@H]2O)CC=C1C (stereo not given in full) | inactive | inactive | 1.56 µg/mL (≈ 2.91 µM) | 1.56 µg/mL (≈ 2.91 µM) |
| CC[C@H]1O[C@@H](/C(C)=C/[C@H](C)/C=C/[C@H]2[C@@H](C)[C@@H]2/C=C/[C@@H]2O[C@H](CC(=O)c3ccccc3)C[C@H](O)[C@H]2O)CC=C1C | inactive | inactive | 6.25 µg/mL (≈ 11.7 µM) | 25 µg/mL (≈ 46.8 µM) |
| CC[C@H]1O[C@@H](/C(C)=C/[C@H](C)/C=C/[C@H]2[C@@H](C)[C@@H]2/C=C/[C@@H]2O[C@H](CC(=O)O)C/C(=N/O)[C@H]2O)CC=C1C | inactive | inactive | 3.12 µg/mL (≈ 6.4 µM) | 1.56 µg/mL (≈ 3.2 µM) |
| CC[C@H]1O[C@@H](/C(C)=C/[C@H](C)/C=C/[C@H]2[C@@H](C)[C@@H]2/C=C/[C@@H]2O[C@H](CC(=O)OC)CC(=O)[C@H]2O)CC=C1C | inactive | inactive | 0.39 µg/mL (≈ 0.801 µM) | 0.195 µg/mL (≈ 0.401 µM) |
| CC[C@H]1O[C@@H](/C(C)=C/[C@H](C)/C=C/[C@H]2[C@@H](C)[C@@H]2/C=C/[C@@H]2O[C@H](CCOC(=O)Nc3ccc(Cl)cc3)C[C@H](OC(=O)Nc3ccc(Cl)cc3)[C@H]2OC(=O)Nc2ccc(Cl)cc2)CC=C1C | inactive | inactive |  | > 50 µg/mL |
| CC[C@H]1O[C@@H](/C(C)=C/[C@H](C)/C=C/[C@H]2[C@@H](C)[C@@H]2/C=C/[C@@H]2O[C@H](CC(C)=O)C[C@H](O)[C@H]2O)CC=C1C | inactive | inactive | 0.39 µg/mL (≈ 0.825 µM) | 0.195 µg/mL (≈ 0.413 µM) |
| CC[C@H]1O[C@@H](/C(C)=C/[C@H](C)/C=C/[C@H]2[C@@H](C)[C@@H]2/C=C/[C@@H]2O[C@H](CCO)C[C@](C)(O)[C@H]2O)CC=C1C | inactive | inactive | 0.78 µg/mL (≈ 1.64 µM) | 0.78 µg/mL (≈ 1.64 µM) |
| CC[C@H]1O[C@@H](/C(C)=C/[C@H](C)/C=C/[C@H]2[C@@H](C)[C@@H]2/C=C/[C@@H]2O[C@H](CCOC(=O)Nc3ccc(Br)cc3)C[C@H](OC(=O)Nc3ccc(Br)cc3)[C@H]2OC(=O)Nc2ccc(Br)cc2)CC=C1C | inactive | inactive |  | > 50 µg/mL |
| CC[C@H]1O[C@@H](/C(C)=C/[C@H](C)/C=C/[C@H]2[C@@H](C)[C@@H]2/C=C/[C@@H]2O[C@H](CC(=O)O)C[C@@H](O)[C@H]2O)CC=C1C | inactive | inactive | 0.78 µg/mL (≈ 1.64 µM) | 0.195 µg/mL (≈ 0.411 µM) |
